According to patent US6355467B1, “Saccharification enzymes from hyperthermophilic bacteria and processes for their production” (Johns Hopkins University, priority 1989, dated 2002):

Experiments:
[1] = test system: P. furiosus; assay: Effect of adding substrate to the culture medium on saccharification enzyme production; type: cell-based, Pyrococcus furiosus; conditions: substrate added to culture
Method: Growth of cells. P. furiosus was grown in artificial sea water supplemented with 10 g/l elemental sulfur and carbohydrate substrate, typically 3 g/l of soluble starch, unless otherwise specified, as described in Example 1. For the present studies, typically one liter bottles were inoculated with 20 ml of a late log phase culture and incubated for 12 hours at 98° C. in a silicon oil bath. Sulfur was removed by filtration and the cell pellet was recovered by centrifugation at about 12,000×g for 30 minutes. Intracellular enzyme preparation. […] The sonicated cells were centrifuged at about 18,000×g for 30 minutes to remove remaining sulfur and cell debris. […] Extracellular enzyme preparation. For extracellular enzyme activities, supernatants from the original centrifugation (i.e., the culture media) were concentrated from 1 liter to about 5 ml using, in succession, a Millipore […] ultrafiltration unit with a 10,000 molecular-weight-cutoff membrane, and a Novacell stirred cell with a 10,000 molecular-weight-cutoff membrane. […] EPPS was used instead of phosphate to prevent precipitation of salts from the media. […] The amount of reducing sugar released was determined using the dinitrosalicylic acid method (Barnfeld, P., 1955, Methods in Enzymology 1:149-50). One unit of enzyme activity was defined as the amount of enzyme that released one nmol of reducing sugar (as a glucose standard) per minute under the assay conditions used. α-Glucosidase was assayed using p-nitrophenyl-α-D-glucopyranoside (PNP-α-G) as substrate, and β-glucosidase was assayed using p-nitrophenyl-β-D-glucopyranoside (PNP-β-G) as substrate. Assays were conducted as follows; for each assay, 1.0 ml of substrate consisting of 10 mM PNP-α-G or PNP-β-G in 0.1 M sodium phosphate buffer, pH 5.5, was pipetted into a quartz cuvette. […] Following the preincubation, enzyme sample (10 μl) was added to the cuvette and the evolution of p-nitrophenol (PNP) was followed by monitoring A405. One unit of glucosidase activity was that amount of enzyme releasing one μmol PNP per minute under the standard conditions, from the appropriate α or β substrate.

[2] = test system: P. furiosus α-glucosidase; assay: Substrate specificity (kinetic assays) of purified α-glucosidase; type: biochemical, Pyrococcus furiosus; conditions: substrate hydrolysed by purified α-glucosidase
Method: (§1) α-Glucosidase was assayed using p-nitrophenyl-α-D-glucopyranoside (PNP-α-G) as substrate, and β-glucosidase was assayed using p-nitrophenyl-β-D-glucopyranoside (PNP-β-G) as substrate. Assays were conducted as follows; for each assay, 1.0 ml of substrate consisting of 10 mM PNP-α-G or PNP-β-G in 0.1 M sodium phosphate buffer, pH 5.5, was pipetted into a quartz cuvette. The cuvettes were inserted into a heated cell holder and preincubated for 5 to 10 minutes at the assay temperature of 98° C. Following the preincubation, enzyme sample (10 μl) was added to the cuvette and the evolution of p-nitrophenol (PNP) was followed by monitoring A405.
Substrate specificity. The substrate specificity of the purified α-glucosidase was tested with a variety of natural and synthetic glucosides.

[3] = test system: purified P. furiosus α-glucosidase; assay: Effects of denaturing agents and inhibitors on purified α-glucosidase; type: biochemical, Pyrococcus furiosus; conditions: standard assay at 98° C.
Method: as §1, with “A405. One unit of glucosidase activity was that amount of enzyme releasing one μmol PNP per minute under the standard conditions, from the appropriate α or β substrate.” for “A405.”
Resistance to denaturing agents. […] Several denaturing agents were added to p-nitrophenyl-α-D-glucopyranoside, both in the presence and absence of the α-glucosidase, to control for possible degradation of the substrate in the presence of the agents.

Compound: OC[C@H]1O[C@H](O[C@H]2[C@H](O)[C@@H](O)C(O)O[C@@H]2CO)[C@H](O)[C@@H](O)[C@@H]1O (mixture of isomers) [Maltose]
- best yield of pullulanase per liter of culture ([1]; intracellular): 8020 units
- Km [2]: 5200 µM
- Vm [2]: 1760 U/mg

Compound: O[C@H](CS)[C@H](O)CS (racemic) [Dithiothreitol]
- Activity Remaining ([3]; agent at 100 mM): 83%

Compound: O=C(O)CN(CCN(CC(=O)O)CC(=O)O)CC(=O)O [EDTA, Ethylenediaminetetraacetic acid]
- Activity Remaining ([3]; agent at 20 mM): 50%

Compound: O=C(O)CN(CCOCCOCCN(CC(=O)O)CC(=O)O)CC(=O)O [EGTA, [Ethylenebis(oxyethylenenitrilo)]tetraacetic acid]
- Activity Remaining ([3]; agent at 20 μM): 85%

Compound: Cl.N=C(N)N [Guanidinium hydrochloride]
- Activity Remaining ([3]; agent at 1.0 M): <1%

Compound: OC[C@H]1O[C@H](OC[C@H]2OC(O)[C@H](O)[C@@H](O)[C@@H]2O)[C@H](O)[C@@H](O)[C@@H]1O (stereo partly drawn) [Isomaltose]
- Km [2]: 8200 µM
- Vm [2]: 951 U/mg

Compound: CO[C@H]1O[C@H](CO)[C@@H](O)[C@H](O)[C@H]1O [Methyl-α-D-glucopyranoside]
- Km [2]: 770 µM
- Vm [2]: 186 U/mg

Compound: CCCCCCCCCCCCOS(=O)(=O)[O-].[Na+] [Sodium dodecyl sulphate]
- Activity Remaining ([3]; agent at 1% (w/v), 30 minutes): 22%

Compound: OC[C@H]1O[C@@](CO)(O[C@H]2O[C@H](CO)[C@@H](O)[C@H](O)[C@H]2O)[C@@H](O)[C@@H]1O [Sucrose]
- activity relative to p-Nitrophenyl-α-D-glucopyranoside (symbols) [2]: nd (No activity detected (<3% of p-Nitrophenyl-α-D-glucopyranoside))

Compound: NC(N)=O [Urea]
- Activity Remaining ([3]; agent at 1.0 M): 84%

Compound: O=[N+]([O-])c1ccc(O[C@@H]2O[C@H](CO)[C@H](O)[C@H](O)[C@H]2O)cc1 [p-Nitrophenyl-α-D-glucopyranoside]
- Km [2]: 260 µM
- Vm [2]: 287 U/mg

Compound: O=[N+]([O-])c1ccc(O[C@@H]2O[C@H](CO)[C@@H](O)[C@H](O)[C@H]2O)cc1 [p-Nitrophenyl-β-D-glucopyranoside]
- activity relative to p-Nitrophenyl-α-D-glucopyranoside (symbols) [2]: t (Only a trace of activity could be detected (i.e., ˜3% of the level found with p-Nitrophenyl-α-D-glucopyranoside).)

Compound: Starch
- best yield of β-glucosidase per liter of culture ([1]; intracellular): 220 units
- activity relative to p-Nitrophenyl-α-D-glucopyranoside (symbols) [2]: nd (No activity detected (<3% of p-Nitrophenyl-α-D-glucopyranoside))

Compound: glycogen
- best yield of amylase per liter of culture ([1]; enzyme in medium): 60,100 units
- best yield of α-glucosidase per liter of culture ([1]; intracellular): 9584
